Test results reported in patent publication US6608027B1, “Macrocyclic peptides active against the hepatitis C virus” (Boehringer Ingelheim (Canada) Ltd, priority 1999, dated 2003).
Where two headings read alike, the source gives them in different places.

Biological target: T1, His-NS3-NS4AFL (full-length NS3-NS4A protein complex) (Hepatitis C virus genotype 1b, UniProt P26663)
T1 construct: made in house; host or cells: Sf21 insect cells, recombinant baculovirus (Bac-to-Bac, pFastBac HTa)
Experiment: Full-length NS3-NS4A heterodimer protein fluorogenic assay
Format: biochemical, HCV genotype 1b
From the text: The NS2-NS5B-3′non coding region was cloned by RT-PCR into the pCR®3 vector (Invitrogen) using RNA extracted from the serum of an HCV genotype 1b infected individual (provided by Dr. Bernard Willems, Hôpital St-Luc, Montréal, Québec, Canada). The NS3-NS4A region (NS3-NS4AFL) was then subcloned by PCR into the pFastBac™ HTa baculovirus expression vector (Gibco/BRL). The vector sequence includes a region encoding a 28-residue N-terminal sequence which contains a hexahistidine tag. The Bac-to-Bac™ baculovirus expression system (Gibco/BRL) was used to produce the recombinant baculovirus. His-NS3-NS4AFL was expressed by infecting 10^6 Sf21 cells/mL with the recombinant baculovirus at a multiplicity of infection of 0.1-0.2 at 27°. Authentic auto-proteolysis occurs during expression to produce a non covalent and stable NS3-NS4A protein complex (referred to as full-length “FL”). The infected culture was harvested 48 to 64 h later by centrifugation at 4°. The cell pellet was homogenized in 50 mM NaPO4, pH 7.5, 40% glycerol (w/v), 2 mM β-mercaptoethanol, in presence of a cocktail of protease inhibitors. His-NS3-NS4AFL was then extracted from the cell lysate with 1.5% NP-40, 0.5% Triton X-100, 0.5M NaCl, and a DNase treatment. After ultracentrifugation, the soluble extract was diluted 4-fold and bound on a Pharmacia Hi-Trap Ni-chelating column. The His-NS3-NS4AFL was eluted in a >90% pure form (as judged by SDS-PAGE), using a 50 to 400 mM imidazole gradient. The His-NS3-NS4AFL was stored at −80° in 50 mM sodium phosphate, pH 7.5, 10% (w/v) glycerol, 0.5 M NaCl, 0.25 M imidazole, 0.1% NP-40. It was thawed on ice and diluted just prior to use.
The protease activity of His-NS3-NS4AFL was assayed in 50 mM Tris-HCl, pH 8.0, 0.25 M sodium citrate, 0.01% (w/v) n-dodecyl-β-D-maltoside, 1 mM TCEP. Five (5) μM of the internally quenched substrate anthranilyl-DDIVPAbu[C(O)—O]-AMY(3-NO2)TW-OH (SEQ. ID NO.: 1) in presence of various concentrations of inhibitor were incubated with 1.5 nM of His-NS3-NS4AFL for 45 min at 23°. […] The reaction was terminated with the addition of 1M MES, pH 5.8. Fluorescence of the N-terminal product was monitored on a Perkin-Elmer LS-50B fluorometer equipped with a 96-well plate reader (excitation wavelength: 325 nm, emission wavelength: 423 nm).
The % inhibition was calculated with the following equation:
100−[(fluoinh−fluoblank)/(fluoctl−fluoblank)×100]
A non-linear curve fit with the Hill model was applied to the inhibition-concentration data, and the 50% effective concentration (IC50) was calculated by the use of SAS software (Statistical Software System; SAS Institute, Inc. Cary, N.C.).

[1] = fluorogenic assay of Example 48, no asterisk, read-out: enzyme activity (IC50 grade)

T1 sequence (P26663 1658-1711): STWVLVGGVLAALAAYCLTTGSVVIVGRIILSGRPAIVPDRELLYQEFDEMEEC
T1 sequence (P26663 1027-1657): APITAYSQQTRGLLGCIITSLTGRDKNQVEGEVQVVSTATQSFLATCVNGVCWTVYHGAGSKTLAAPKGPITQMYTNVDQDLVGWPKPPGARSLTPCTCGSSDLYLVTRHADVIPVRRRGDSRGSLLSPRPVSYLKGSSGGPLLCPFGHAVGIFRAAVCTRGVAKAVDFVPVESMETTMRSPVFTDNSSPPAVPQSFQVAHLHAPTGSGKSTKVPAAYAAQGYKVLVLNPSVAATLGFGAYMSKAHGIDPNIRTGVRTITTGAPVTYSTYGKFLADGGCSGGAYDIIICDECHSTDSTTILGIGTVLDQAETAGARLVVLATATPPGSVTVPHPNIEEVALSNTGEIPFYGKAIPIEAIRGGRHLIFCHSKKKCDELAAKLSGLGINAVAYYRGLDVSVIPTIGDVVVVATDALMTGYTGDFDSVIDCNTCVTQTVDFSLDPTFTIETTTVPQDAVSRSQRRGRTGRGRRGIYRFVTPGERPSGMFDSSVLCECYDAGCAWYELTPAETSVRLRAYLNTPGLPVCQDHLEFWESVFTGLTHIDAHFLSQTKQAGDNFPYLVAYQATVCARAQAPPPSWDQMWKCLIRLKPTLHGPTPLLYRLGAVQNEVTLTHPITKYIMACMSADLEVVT

Row | SMILES | IC50 | IC50 [1]
1 | COc1ccc2c(O[C@@H]3C[C@H]4C(=O)N[C@]5(C(=O)O)C[C@H]5CCCCCCC[C@H](NC(C)=O)C(=O)N4C3)cc(-c3ccccc3)nc2c1 [Compound 219] | < 100 nM | –
2 | COc1ccc2c(O[C@@H]3C[C@H]4C(=O)N[C@]5(C(=O)O)C[C@H]5/C=C\COCCC[C@H](O)C(=O)N4C3)cc(-c3ccccc3)nc2c1 [Compound 305] | – | 100 to 1000 nM
3 | COc1ccc2c(O[C@@H]3C[C@H]4C(=O)N[C@]5(C(=O)O)C[C@H]5/C=C\CCCCCC[C@H](NC(=O)OC(C)(C)C)C(=O)N4C3)cc(-c3csc(NC(C)=O)n3)nc2c1 [Compound 307] | – | < 100 nM
4 | CC(C)(C)OC(=O)N[C@H]1CCC/C=C/CC[C@@H]2C[C@@]2(C(=O)O)NC(=O)[C@@H]2CC(Oc3ccnc4ccccc34)CN2C1=O (stereo partly shown) [Compound 202] | 100 to 1000 nM | –
5 | COc1ccc2c(O[C@@H]3C[C@H]4C(=O)N[C@]5(C(=O)O)C[C@H]5/C=C\CCC(O)CC[C@H](NC(=O)OC(C)(C)C)C(=O)N4C3)cc(-c3ccccc3)nc2c1 (mixture of isomers) [Compound 217] | < 100 nM | –
6 | COc1ccc2c(O[C@@H]3C[C@H]4C(=O)N[C@]5(C(=O)O)C[C@H]5/C=C\CCCCC[C@H](NC(=O)OC(C)(C)C)C(=O)N4C3)cc(-c3cnco3)nc2c1 [Compound 603] | – | < 100 nM
7 | CC(=O)N[C@H]1CCC/C=C/CC[C@@H]2C[C@@]2(C(=O)O)NC(=O)[C@@H]2CC(Oc3ccnc4ccccc34)CN2C1=O (stereo partly shown) [Compound 203] | > 1000 nM | –
8 | COc1ccc2c(O[C@@H]3C[C@H]4C(=O)N[C@]5(C(=O)O)CC5CCCCCO[C@H](C)[C@H](NC(=O)OC(C)(C)C)C(=O)N4C3)cc(-c3ccccc3)nc2c1 (stereo partly shown) [Compound 407] | – | 100 to 1000 nM
9 | COc1ccc2c(O[C@@H]3C[C@H]4C(=O)N[C@]5(C(=O)O)C[C@H]5CC/C=C/CCC[C@H](NC(=O)OC(C)(C)C)C(=O)N4C3)cc(-c3ccccc3)nc2c1 [Compound 401] | – | < 100 nM
10 | COc1ccc2c(O[C@@H]3C[C@H]4C(=O)N[C@]5(C(=O)O)C[C@H]5CC/C=C/CS[C@@H](C)[C@H](NC(=O)OC(C)(C)C)C(=O)N4C3)cc(-c3ccccc3)nc2c1 [Compound 410] | – | < 100 nM
11 | CC(=O)Nc1nc(-c2cc(O[C@@H]3C[C@H]4C(=O)N[C@]5(C(=O)O)C[C@H]5/C=C\CCCCC[C@H](NC(=O)OC(C)(C)C)C(=O)N4C3)c3ccc(N(C)C)cc3n2)cs1 [Compound 601] | – | < 100 nM
12 | CC(C)(C)OC(=O)N[C@H]1CCCCC/C=C\[C@@H]2C[C@@]2(C(=O)O)NC(=O)[C@@H]2C[C@@H](Oc3cc(C(F)(F)F)nc4cc(O)ccc34)CN2C1=O [Compound 602] | – | < 100 nM
13 | COc1ccc2c(O[C@@H]3C[C@H]4C(=O)N[C@]5(C(=O)O)C[C@H]5/C=C\CCCCC[C@H](NC(=O)OC(C)(C)C)C(=O)N4C3)cc(-c3ccccc3)nc2c1 [Compound 208] | < 100 nM | –
14 | COc1ccc2c(O[C@@H]3C[C@H]4C(=O)N[C@]5(C(=O)O)C[C@H]5/C=C\CCCCC[C@H](NC(=O)OC(C)(C)C)C(=O)N4C3)ccnc2c1 [Compound 207] | < 100 nM | –
15 | COc1ccc2c(OC3CC4C(=O)NC5(C(=O)O)CC5CCC=CCSC(C)(C)C(NC(=O)OC(C)(C)C)C(=O)N4C3)cc(-c3ccccc3)nc2c1 (stereo not shown) [Compound 412] | – | > 1000 nM
16 | CC(C)(C)OC(=O)N[C@H]1CCCC(O)C(O)CC[C@@H]2C[C@@]2(C(=O)O)NC(=O)[C@@H]2CC(Oc3ccnc4ccccc34)CN2C1=O (stereo partly shown) [Compound 205] | 100 to 1000 nM | –

Row | SMILES | IC50 | IC50 [1]
17 | CC(C)(C)OC(=O)N[C@H]1CCCCCC=CCCC2CC2(C(=O)O)NC(=O)[C@@H]2C[C@@H](Oc3ccnc4ccccc34)CN2C1=O (single isomer, unassigned) [Compound 301] | – | 100 to 1000 nM
18 | COc1ccc2c(O[C@@H]3C[C@H]4C(=O)N[C@]5(C(=O)O)C[C@H]5/C=C\CCCCCC(O)C(=O)N4C3)ccnc2c1 (single isomer, unassigned) [Compound 213] | 100 to 1000 nM | –
19 | CC(C)(C)OC(=O)N[C@H]1CCCCC/C=C\[C@@H]2C[C@@]2(C(=O)O)NC(=O)[C@@H]2C[C@@H](Oc3ccnc4ccccc34)CN2C1=O [Compound 206] | < 100 nM | –
20 | COc1ccc2c(O[C@@H]3C[C@H]4C(=O)N[C@]5(C(=O)O)C[C@@H]5/C=C/CCC[C@H](NC(=O)OC(C)(C)C)C(=O)N4C3)cc(-c3ccccc3)nc2c1 [Compound 302] | – | > 1000 nM
21 | COc1ccc2c(O[C@@H]3C[C@H]4C(=O)N[C@]5(C(=O)O)CC5CCCCN(C(C)=O)CC[C@H](NC(=O)OC(C)(C)C)C(=O)N4C3)cc(-c3ccccc3)nc2c1 (stereo partly shown) [Compound 508] | – | < 100 nM
22 | COc1ccc2c(O[C@@H]3C[C@H]4C(=O)N[C@]5(C(=O)O)C[C@@H]5/C=C/COCCC[C@H](NC(=O)OC(C)(C)C)C(=O)N4C3)cc(-c3ccccc3)nc2c1 [Compound 303] | – | 100 to 1000 nM
23 | COc1ccc2c(O[C@@H]3C[C@H]4C(=O)N[C@]5(C(=O)O)C[C@@H]5/C=C\CCCCC[C@H](NC(=O)OC(C)(C)C)C(=O)N4C3)cc(-c3nccs3)nc2c1 [Compound 220] | < 100 nM | –
24 | COc1ccc2c(OC3CC4C(=O)NC5(C(=O)O)CC5CCC=CCOCC(NC(=O)OC(C)(C)C)C(=O)N4C3)cc(-c3ccccc3)nc2c1 (stereo not shown) [Compound 403] | – | < 100 nM
25 | COc1ccc2c(O[C@@H]3C[C@H]4C(=O)N[C@]5(C(=O)O)CC5/C=C\CCCCC[C@H](NC(=O)NC(C)(C)C)C(=O)N4C3)cc(-c3ccccc3)nc2c1 (stereo partly shown) [Compound 209] | < 100 nM | –
26 | CCOc1cc(O[C@@H]2C[C@H]3C(=O)N[C@]4(C(=O)O)C[C@H]4/C=C\CCCCC[C@H](NC(C)=O)C(=O)N3C2)c2ccc(OC)cc2n1 [Compound 308] | – | < 100 nM
27 | COc1ccc2c(O[C@@H]3C[C@H]4C(=O)N[C@]5(C(=O)O)C[C@H]5/C=C\CCCCC[C@H](N)C(=O)N4C3)cc(-c3ccccc3)nc2c1 [Compound 211] | < 100 nM | –
28 | COc1ccc2c(O[C@@H]3C[C@H]4C(=O)N[C@]5(C(=O)O)C[C@H]5C=CCCCC=CC[C@H](NC(=O)OC(C)(C)C)C(=O)N4C3)cc(-c3ccccc3)nc2c1 [Compound 304] | – | < 100 nM
29 | COc1ccc2c(OC3CC4C(=O)NC5(C(=O)O)CC5CCC=CCCCC(NC(=O)OC(C)(C)C)C(=O)N4C3)cc(-c3ccccc3)nc2c1 (stereo not shown) [Compound 402] | – | 100 to 1000 nM
30 | COc1ccc2c(O[C@@H]3C[C@H]4C(=O)N[C@]5(C(=O)O)C[C@H]5CCCCCCC[C@H](NC(=O)OC(C)(C)C)C(=O)N4C3)cc(-c3ccccc3)nc2c1 [Compound 215] | < 100 nM | –
31 | COc1ccc2c(O[C@@H]3C[C@H]4C(=O)N[C@]5(C(=O)O)CC5CC/C=C/CO[C@H](C)[C@H](NC(=O)OC(C)(C)C)C(=O)N4C3)cc(-c3ccccc3)nc2c1 (stereo partly shown) [Compound 404] | – | 100 to 1000 nM
